One experiment concerns A. baumannii AB17978. Kind of experiment: microbe, parasite or virus in culture. The experiment is classed as cell-based, Acinetobacter baumannii. The protocol: (§1) MIC values were determined in cation-adjusted Mueller-Hinton broth using the broth microdilution method according to CLSI guidelines. Plates were incubated for 16 to 24 h at 37 °C.
(§2) Six biological replicates were performed across three different 2-fold dilution series, starting at concentration of 100 µg/ml, 80 µg/ml or 64 µg/ml. The lowest concentration of antimicrobial inhibiting growth was taken as the MIC. This was established by visual inspection of the medium after the incubation period with a lack of turbidity of the growth medium indicating no growth.[3] […]

In another experiment the test system is A. baumannii AB5075. Kind of experiment: microbe, parasite or virus in culture. The experiment is classed as cell-based, Acinetobacter baumannii. The protocol:
as §1, §2

The test system of a further experiment is P. aeruginosa 950. As to the kind of experiment: microbe, parasite or virus in culture. The experiment is classed as cell-based, Pseudomonas aeruginosa. How it is done: as §1, §2
The target of a further experiment is T1, PaLspA (Pseudomonas aeruginosa, UniProt Q9HVM5).
T1 construct: made in house
T1 sequence (Q9HVM5 1-169): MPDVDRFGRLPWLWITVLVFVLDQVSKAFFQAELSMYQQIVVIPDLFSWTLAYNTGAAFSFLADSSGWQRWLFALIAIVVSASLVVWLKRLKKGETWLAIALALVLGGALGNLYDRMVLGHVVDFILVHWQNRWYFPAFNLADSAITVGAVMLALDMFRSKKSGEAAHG
As to the kind of experiment: biochemical. The protocol:
These analogues were tested for activity against PaLspA using an in vitro fluorescence resonance energy transfer (FRET) activity assay.[21] LspA inhibition was detected by a change in fluorescence upon cleavage of a FRET peptide substrate containing an N-terminal quencher moiety and a C-terminal fluorophore.
(A) Structures of G2a and G2d. (B) Results of the FRET dose–response assays. PaLspA concentration was 40 nM, FRET substrate concentration was 50 μM, and the concentration of inhibitors globomycin, G2a, and G2d ranged from 0–3,000 nM. (C) SDS-PAGE gels and quantitation of the PaLspA gel-shift dose–response assays. ppICP concentration was 12 μM, DOPG concentration was 600 μM, and Lgt concentration was 1.2 μM. The Lgt-catalyzed reaction was allowed to proceed for 60 min at 37 °C, after which inhibitors (0–1000 nM) were added. The PaLspA reaction was initiated by the addition of 100 nM enzyme. The LspA reaction was allowed to proceed for 30 min at 37 °C before being quenched with SDS-PAGE loading buffer (62.5 mM Tris/HCl pH 6.8, 2.5% (w/v) SDS, 0.002% (w/v) bromophenol blue, 0.5 M β-mercaptoethanol, 10% (v/v) glycerol). Quantitation of the gel-shift assays was performed using Image Lab, and data were plotted using GraphPad Prism.
Materials: All reagents were obtained from commercial sources and used without additional purification. All aqueous solutions were prepared using ultrapure laboratory grade water (deionized, filtered, and sterilized) obtained from an in-house ELGA water purification system. […]
Expression and purification of PaLspA, Lgt, EcLspA and ppICP: PaLspA, Lgt and pre-proICP (ppICP) were expressed and purified using previously published protocols (Vogely et al, 2016).[1] EcLspA was expressed and purified as described for PaLspA, with the following modification. The lysis buffer was 50 mM Hepes pH 7.5, 150 mM NaCl, 1 mM TCEP, 10 %(v/v) glycerol. Isolated membranes, containing EcLspA, were solubilized with 1 %(v/v) FC12 for 2 h at […]

The test system of a further experiment is E. coli ATCC25922. Kind of experiment: microbe, parasite or virus in culture. The experiment is classed as cell-based, Escherichia coli. The protocol: as §1, §2

Converted amounts (≈) assume the structure as drawn. Like-named read-outs stand apart in the source and are kept apart here. Numbered stars: 1 amine (or outer) side, 2 acyl side, 3 side chain; on linkers, the order of the positions; unused ones are H or OH. Square brackets hold non-standard residues; d marks the D form. Peptide text beside a SMILES is read from it. X1 = CCCCCCCCN([C@@H](C)C(=O)[*:2])[*:1]; Gly(N-dodecyl) = CCCCCCCCCCCCNCC(=O)O; aIle = CC[C@@H](C)[C@H](N)C(=O)O; aThr = C[C@H](O)[C@H](N)C(=O)O; NMeL = CN[C@@H](CC(C)C)C(=O)O; βAla = NCCC(=O)O

As for `CCCCCCCCN1C(=O)CCNC(=O)[C@H]([C@H](C)O)NC(=O)[C@H](CO)NC(=O)[C@H]([C@H](C)CC)NC(=O)[C@H](CC(C)C)N(C)C(=O)[C@@H]1C` [G2a] (cyclo([NMeL][aIle]S[aThr][βAla][X1])), the MIC in the experiment with A. baumannii AB17978 (AB17978) is 12.5 µg/mL (≈ 18.3 µM); with A. baumannii AB5075 (AB5075), 16 µg/mL (≈ 23.4 µM); against P. aeruginosa 950 (950) it was 32 µg/mL (≈ 46.9 µM); against E. coli ATCC25922 (ATCC25922) it was 32 µg/mL (≈ 46.9 µM). For the same compound, half-maximal inhibition on PaLspA (IC50) required 304 ± 62 nM.
Regarding `CCCCCC[C@H]1OC(=O)CNC(=O)[C@H]([C@H](C)O)NC(=O)[C@H](CO)NC(=O)[C@H]([C@H](C)CC)NC(=O)[C@H](CC(C)C)N(C)C(=O)[C@@H]1C` [globomycin, reference compound], the MIC in the experiment on A. baumannii AB17978 (Acinetobacter baumannii, A. baumannii AB17978, cation-adjusted Mueller-Hinton broth, 16 to 24 h, 37 °C, read-out: MIC) is 16 µg/mL (≈ 24.4 µM); in the experiment on A. baumannii AB5075 (Acinetobacter baumannii, A. baumannii AB5075, cation-adjusted Mueller-Hinton broth, 16 to 24 h, 37 °C, read-out: MIC) it was 32 µg/mL (≈ 48.8 µM); with P. aeruginosa 950 (Pseudomonas aeruginosa, P. aeruginosa 950, cation-adjusted Mueller-Hinton broth, 16 to 24 h, 37 °C, read-out: MIC) it was 16 µg/mL (≈ 24.4 µM); in the experiment with E. coli ATCC25922 (Escherichia coli, E. coli ATCC25922, cation-adjusted Mueller-Hinton broth, 16 to 24 h, 37 °C, read-out: MIC), 10 µg/mL (≈ 15.2 µM). In addition, on PaLspA, the IC50 (usually the concentration needed to halve the response being measured) was determined as 40 nM.
In the case of `CCCCCCCCCCCCN1CC(=O)N(C)[C@@H](CC(C)C)C(=O)N[C@@H]([C@H](C)CC)C(=O)N[C@@H](CO)C(=O)N[C@@H]([C@H](C)O)C(=O)NCCC1=O` [G2d] (cyclo([NMeL][aIle]S[aThr][βAla][Gly(N-dodecyl)])), the MIC in the experiment with A. baumannii AB17978 (AB17978) amounted to 16 µg/mL (≈ 22.1 µM); against A. baumannii AB5075 (AB5075) it was 16 µg/mL (≈ 22.1 µM); with P. aeruginosa 950 (950) it was 32 µg/mL (≈ 44.1 µM); with E. coli ATCC25922 (ATCC25922), 32 µg/mL (≈ 44.1 µM). This compound had a concentration for half-maximal inhibition (IC50) on PaLspA of 157 ± 25 nM.

The record behind these values is paper PMC11106742, “Computational Design of Cyclic Peptide Inhibitors of a Bacterial Membrane Lipoprotein Peptidase” (ACS Chemical Biology, 2024).
